In the supplement of paper PMC10307832:

Experiments:
Assay in all cases: relative viability (nuclei count vs DMSO), 5 days (fraction); higher = more cells survive
NCI-H1793 = tested on: NCI-H1793
In short: (§1)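 Lung cancer cell lines, seeded in 1536-well plates, were treated the following day by pin tool with a single drug or with five library-drug doses (not always all listed) in √10 steps on top of a fixed anchor-drug dose. Cells were fixed and nuclei stained in one step after 5 days, and nuclei were counted. Relative viability is the nuclei count for treated wells divided by that for vehicle wells, reported as medians of duplicate plates.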

LC-2-ad = tested on: LC-2-ad
In short: as §1

CAL-12T = tested on: CAL-12T
In short: as §1

NCI-H460 = tested on: NCI-H460
In short: as §1

LOU-NH91 = tested on: LOU-NH91
In short: as §1

UMC-11 = tested on: UMC-11
In short: as §1

ABC-1 = tested on: ABC-1
In short: as §1

NCI-H3122 = tested on: NCI-H3122
In short: as §1

NCI-H1651 = tested on: NCI-H1651
In short: as §1

NCI-H1944 = tested on: NCI-H1944
In short: as §1

HCC-78 = tested on: HCC-78
In short: as §1

NCI-H2405 = tested on: NCI-H2405
In short: as §1

HCC-366 = tested on: HCC-366
In short: as §1

NCI-H2170 = tested on: NCI-H2170
In short: as §1

NCI-H2228 = tested on: NCI-H2228
In short: as §1

LU99A = tested on: LU99A
In short: as §1

NCI-H1395 = tested on: NCI-H1395
In short: as §1

PC-3 [JPC-3] = tested on: PC-3 [JPC-3]
In short: as §1

NCI-H1755 = tested on: NCI-H1755
In short: as §1

NCI-H2087 = tested on: NCI-H2087
In short: as §1

RERF-LC-KJ = tested on: RERF-LC-KJ
In short: as §1

Nc1ccn([C@@H]2O[C@H](CO)[C@@H](O)[C@@H]2O)c(=O)n1 [Cytarabine] + CS(=O)(=O)CCNCc1ccc(-c2ccc3ncnc(Nc4ccc(OCc5cccc(F)c5)c(Cl)c4)c3c2)o1 [Lapatinib] (partner 2 µM)
relative viability (NCI-H1793; first compound 0.005 µM): 0.846 | relative viability (NCI-H1793; first compound 0.01581 µM): 0.478 | relative viability (NCI-H1793; first compound 0.05 µM): 0.656 | relative viability (NCI-H1793; first compound 0.1581 µM): 0.451 | relative viability (NCI-H1793; first compound 0.5 µM): 0.338 | relative viability (LC-2-ad; first compound 0.005 µM): 0.878 | relative viability (LC-2-ad; first compound 0.01581 µM): 0.868 | relative viability (LC-2-ad; first compound 0.05 µM): 0.926 | relative viability (LC-2-ad; first compound 0.1581 µM): 0.26 | relative viability (LC-2-ad; first compound 0.5 µM): 0.192 | relative viability (CAL-12T; first compound 0.005 µM): 0.848 | relative viability (CAL-12T; first compound 0.01581 µM): 0.629 | relative viability (CAL-12T; first compound 0.05 µM): 0.542 | relative viability (CAL-12T; first compound 0.1581 µM): 0.388 | relative viability (CAL-12T; first compound 0.5 µM): 0.269 | relative viability (NCI-H460; first compound 0.005 µM): 0.333 | relative viability (NCI-H460; first compound 0.01581 µM): 1.1 | relative viability (NCI-H460; first compound 0.05 µM): 0.4 | relative viability (NCI-H460; first compound 0.1581 µM): 0.0338 | relative viability (NCI-H460; first compound 0.5 µM): 0.0305 | relative viability (LOU-NH91; first compound 0.005 µM): 0.735 | relative viability (LOU-NH91; first compound 0.01581 µM): 0.729 | relative viability (LOU-NH91; first compound 0.05 µM): 0.588 | relative viability (LOU-NH91; first compound 0.1581 µM): 0.669 | relative viability (LOU-NH91; first compound 0.5 µM): 0.554 | relative viability (UMC-11; first compound 0.005 µM): 0.632 | relative viability (UMC-11; first compound 0.01581 µM): 0.462 | relative viability (UMC-11; first compound 0.05 µM): 0.434 | relative viability (UMC-11; first compound 0.1581 µM): 0.193 | relative viability (UMC-11; first compound 0.5 µM): 0.211 | relative viability (ABC-1; first compound 0.005 µM): 1.29 | relative viability (ABC-1; first compound 0.01581 µM): 1.24 | relative viability (ABC-1; first compound 0.1581 µM): 1.16 | relative viability (ABC-1; first compound 0.5 µM): 1.03 | relative viability (NCI-H3122; first compound 0.005 µM): 1.12 | relative viability (NCI-H3122; first compound 0.01581 µM): 0.912 | relative viability (NCI-H3122; first compound 0.05 µM): 0.91 | relative viability (NCI-H3122; first compound 0.1581 µM): 0.676 | relative viability (NCI-H3122; first compound 0.5 µM): 0.551 | relative viability (NCI-H1651; first compound 0.005 µM): 0.801 | relative viability (NCI-H1651; first compound 0.01581 µM): 0.845 | relative viability (NCI-H1651; first compound 0.05 µM): 1.02 | relative viability (NCI-H1651; first compound 0.1581 µM): 0.421 | relative viability (NCI-H1651; first compound 0.5 µM): 0.288 | relative viability (NCI-H1944; first compound 0.005 µM): 0.603 | relative viability (NCI-H1944; first compound 0.01581 µM): 0.336 | relative viability (NCI-H1944; first compound 0.05 µM): 0.318 | relative viability (NCI-H1944; first compound 0.1581 µM): 0.177 | relative viability (NCI-H1944; first compound 0.5 µM): 0.153 | relative viability (HCC-78; first compound 0.005 µM): 0.799 | relative viability (HCC-78; first compound 0.01581 µM): 0.595 | relative viability (HCC-78; first compound 0.05 µM): 0.353 | relative viability (HCC-78; first compound 0.1581 µM): 0.308 | relative viability (HCC-78; first compound 0.5 µM): 0.19 | relative viability (NCI-H2405; first compound 0.005 µM): 0.937 | relative viability (NCI-H2405; first compound 0.01581 µM): 0.698 | relative viability (NCI-H2405; first compound 0.05 µM): 0.637 | relative viability (NCI-H2405; first compound 0.1581 µM): 0.483 | relative viability (NCI-H2405; first compound 0.5 µM): 0.294 | relative viability (HCC-366; first compound 0.005 µM): 1.16 | relative viability (HCC-366; first compound 0.01581 µM): 0.85 | relative viability (HCC-366; first compound 0.05 µM): 1.05 | relative viability (HCC-366; first compound 0.1581 µM): 0.0753 | relative viability (HCC-366; first compound 0.5 µM): 0.0431 | relative viability (NCI-H2170; first compound 0.01581 µM): 0.233 | relative viability (NCI-H2170; first compound 0.05 µM): 0.231 | relative viability (NCI-H2170; first compound 0.1581 µM): 0.19 | relative viability (NCI-H2170; first compound 0.5 µM): 0.182 | relative viability (NCI-H2228; first compound 0.005 µM): 0.632 | relative viability (NCI-H2228; first compound 0.01581 µM): 0.562 | relative viability (NCI-H2228; first compound 0.05 µM): 0.315 | relative viability (NCI-H2228; first compound 0.1581 µM): 0.183 | relative viability (NCI-H2228; first compound 0.5 µM): 0.136 | relative viability (LU99A; first compound 0.005 µM): 0.974 | relative viability (LU99A; first compound 0.01581 µM): 0.968 | relative viability (LU99A; first compound 0.05 µM): 1.02 | relative viability (LU99A; first compound 0.1581 µM): 0.988 | relative viability (LU99A; first compound 0.5 µM): 0.938 | relative viability (NCI-H1395; first compound 0.005 µM): 0.935 | relative viability (NCI-H1395; first compound 0.01581 µM): 0.749 | relative viability (NCI-H1395; first compound 0.05 µM): 0.581 | relative viability (NCI-H1395; first compound 0.1581 µM): 0.461 | relative viability (NCI-H1395; first compound 0.5 µM): 0.355 | relative viability (PC-3 [JPC-3]; first compound 0.005 µM): 0.435 | relative viability (PC-3 [JPC-3]; first compound 0.01581 µM): 0.465 | relative viability (PC-3 [JPC-3]; first compound 0.05 µM): 0.426 | relative viability (PC-3 [JPC-3]; first compound 0.1581 µM): 0.396 | relative viability (PC-3 [JPC-3]; first compound 0.5 µM): 0.389 | relative viability (NCI-H1755; first compound 0.005 µM): 0.759 | relative viability (NCI-H1755; first compound 0.01581 µM): 0.973 | relative viability (NCI-H1755; first compound 0.05 µM): 0.8 | relative viability (NCI-H1755; first compound 0.1581 µM): 0.259 | relative viability (NCI-H1755; first compound 0.5 µM): 0.271 | relative viability (NCI-H2087; first compound 0.005 µM): 1.04 | relative viability (NCI-H2087; first compound 0.01581 µM): 0.967 | relative viability (NCI-H2087; first compound 0.05 µM): 0.894 | relative viability (NCI-H2087; first compound 0.1581 µM): 0.678 | relative viability (NCI-H2087; first compound 0.5 µM): 0.402 | relative viability (RERF-LC-KJ; first compound 0.005 µM): 0.885 | relative viability (RERF-LC-KJ; first compound 0.01581 µM): 0.751 | relative viability (RERF-LC-KJ; first compound 0.05 µM): 0.892 | relative viability (RERF-LC-KJ; first compound 0.1581 µM): 0.569 | relative viability (RERF-LC-KJ; first compound 0.5 µM): 0.47
